Assay results from patent US20100298370A1, “BENZOTHIAZOLYL THIENOPYRIDINE DERIVATIVES AND USES THEREOF” (priority 2006, published 2010).
pIC50: −log10 of the molar value.

Target: T1, VEGF binding to heparin (HS-GAG) (Homo sapiens, UniProt P15692)
T1 construct: purchased Research and Development Systems
T1 sequence (P15692 27-191 isoform P15692-4): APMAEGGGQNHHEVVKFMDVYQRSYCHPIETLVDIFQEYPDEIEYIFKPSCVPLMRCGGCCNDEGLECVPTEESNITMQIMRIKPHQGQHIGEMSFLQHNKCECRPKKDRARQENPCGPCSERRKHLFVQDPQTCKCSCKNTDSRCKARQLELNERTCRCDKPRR
Assay: In vitro VEGF to HS-GAG binding assay (ELISA, heparin-BSA coated plate)
Excerpt: An in vitro assay was used to assess the ability of test compounds of general formulas I and II to inhibit the interaction of VEGF with HS-GAGs. The assay was designed to for determine the concentration required for 50% inhibition (IC-50) for each specific compound. The test compounds were purchased from Life Chemicals Ltd. (Kiev, Ukraine), and the GAG used was heparin (heparin grade I-A; Sigma) conjugated to bovine serum albumin (Sigma) and diluted 1:200 in phosphate-buffered saline (PBS; pH 7.3). The heparin was added to a 96-well polystyrene ELISA plate (NUNC; 0.1 ml per well) and incubated overnight at 4° C. Following the incubation, the plate was washed thoroughly, by immersion, with de-ionized water and then with PBS (pH 7.3) containing Tween 20 (Sigma, 0.05%). The ELISA plate was then blocked with BSA (ICN, 3%, 200 μl per well) for 1 hour at room temperature. Following blocking, the plate was washed with de-ionized water, and then twice with PBS (pH 7.3) containing Tween 20. Recombinant human VEGF (Research and Development Systems) dissolved in PBS supplemented with BSA (0.1%) was added to the ELISA plate. The test compounds were dissolved in DMSO (MERCK), diluted in PBS and added to the wells at concentrations ranging from 0.01 to 200 μM to obtain a final volume 100 μl per well, and incubated for 60 minutes at room temperature with shaking. Following incubation, the plate was washed with de-ionized water and PBS (pH 7.3) containing Tween 20. Anti-human VEGF (1:2000; Research and Development Systems) diluted in PBS supplemented with BSA (1%) was added to the ELISA plate (100 per well) and incubated for 60 minutes at room temperature with shaking. Following incubation, the plate was washed with de-ionized water and then with PBS (pH 7.3) containing Tween 20. Streptavidin-HRP (1:200; Research and Development Systems Cat. No. DY998) diluted in PBS supplemented with BSA (1%) was added to the ELISA plate (100 per well) and incubated for 20 minutes at room temperature with shaking. The plate was then washed with de-ionized water and twice with PBS (pH 7.3) containing Tween 20. The peroxidase substrate chromogen tetramethyl benzidine (TMB; Dako) was added (100 μl per well) to the ELISA plate and incubated at room temperature. After 15 minutes, ELISA Stop Solution (hydrochloric acid 1N, sulfuric acid 3N) was added (100 μl per well) to stop the peroxidase catalyzed colorimetric reaction. The Optical Density (OD) of the samples was measured at 450 nm using an ELISA plate reader (Dynatech MR5000). Data were analyzed with Graphpad Prism software and IC-50 values were determined.
Percent inhibition at 30 μM concentration is shown and for selected compounds IC-50 was established.

Compound: CCN1CCc2c(sc(NC(=O)c3ccc(OC)cc3)c2-c2nc3ccccc3s2)C1 [Compound 11, N-[3-(2-benzothiazolyl)-4,5,6,7-tetrahydro-6-ethylthieno[2,3-c]pyridin-2-yl]-4-methoxybenzamide]
- inhibition at 30 µM: 41%

Compound: CN1CCc2c(sc(NC(=O)CN3C(=O)c4ccccc4C3=O)c2-c2nc3ccccc3s2)C1 [Compound 30, N-[3-(2-benzothiazolyl)-4,5,6,7-tetrahydro-6-methylthieno[2,3-c]pyridin-2-yl]-1,3-dihydro-1,3-dioxo-2H-isoindole-2-acetamide]
- inhibition at 30 µM: 29%

Compound: CCN1CCc2c(sc(NC(=O)c3ccc(Cl)cc3)c2-c2nc3ccccc3s2)C1 [Compound 10, N-[3-(2-benzothiazolyl)-4,5,6,7-tetrahydro-6-ethylthieno[2,3-c]pyridin-2-yl]-(4-chloro)benzamide]
- inhibition at 30 µM: 71%

Compound: CC(=O)c1ccc(C(=O)Nc2sc3c(c2-c2nc4ccccc4s2)CCN(Cc2ccccc2)C3)cc1 [Compound 8, N-[3-(2-benzothiazolyl)-4,5,6,7-tetrahydro-6-phenylmethylthieno[2,3-c]pyridin-2-yl]-4-acetylbenzamide]
- pIC50: 6.40
- inhibition at 30 µM: 82%

Compound: COc1ccc(C(=O)Nc2sc3c(c2-c2nc4ccccc4s2)CCN(Cc2ccccc2)C3)c(OC)c1 [Compound 13, N-[3-(2-benzothiazolyl)-4,5,6,7-tetrahydro-6-phenylmethylthieno[2,3-c]pyridin-2-yl]-(2,4-dimethoxy)benzamide]
- inhibition at 30 µM: 64%

Compound: CN1CCc2c(sc(NC(=O)c3cc4c(ccc5ccccc54)oc3=O)c2-c2nc3ccccc3s2)C1 [Compound 32, N-[3-(2-benzothiazolyl)-4,5,6,7-tetrahydro-6-methylthieno[2,3-c]pyridin-2-yl]-3-oxo-3H-naphtho[2,1-b]pyran-2-carboxamide]
- inhibition at 30 µM: 31%

Compound: CC(C)Oc1ccc(C(=O)Nc2sc3c(c2-c2nc4ccccc4s2)CCN(C)C3)cc1 [Compound 19, N-[3-(2-benzothiazolyl)-4,5,6,7-tetrahydro-6-methylthieno[2,3-c]pyridin-2-yl]-4-(1-methylethoxy)benzamide]
- inhibition at 30 µM: 49%

Compound: CCN1CCc2c(sc(NC(=O)c3cc(OC)c(OC)c(OC)c3)c2-c2nc3ccccc3s2)C1 [Compound 14, N-[3-(2-benzothiazolyl)-4,5,6,7-tetrahydro-6-ethylthieno[2,3-c]pyridin-2-yl]-(3,4,5-trimethoxy)benzamide]
- pIC50: 6.70
- inhibition at 30 µM: 73%

Compound: Cc1ccc(S(=O)(=O)CC(=O)Nc2sc3c(c2-c2nc4ccccc4s2)CCN(C)C3)cc1 [Compound 39, N-[3-(2-benzothiazolyl)-4,5,6,7-tetrahydro-6-methylthieno[2,3-c]pyridin-2-yl]-(4-methylphenylsulfonyl)acetamide]
- inhibition at 30 µM: 42%

Compound: CN1CCc2c(sc(NC(=O)c3ccc4ncsc4c3)c2-c2nc3ccccc3s2)C1 [Compound 34, N-[3-(2-benzothiazolyl)-4,5,6,7-tetrahydro-6-methylthieno[2,3-c]pyridin-2-yl]-6-benzothiazolecarboxamide]
- pIC50: 6.70
- inhibition at 30 µM: 77%

Compound: CN1CCc2c(sc(NC(=O)CCSc3ccc(F)cc3)c2-c2nc3ccccc3s2)C1 [Compound 12, N-[3-(2-benzothiazolyl)-4,5,6,7-tetrahydro-6-methylthieno[2,3-c]pyridin-2-yl]-3-[(4-fluorophenyl)thio]propanamide]
- inhibition at 30 µM: 62%

Compound: CN1CCc2c(sc(NC(=O)c3cccc(C(F)(F)F)c3)c2-c2nc3ccccc3s2)C1 [Compound 16, N-[3-(2-benzothiazolyl)-4,5,6,7-tetrahydro-6-methylthieno[2,3-c]pyridin-2-yl]-3-trifluoromethylbenzamide]
- inhibition at 30 µM: 61%

Compound: CC(=O)N1CCc2c(sc(NC(=O)c3cccc(Br)c3)c2-c2nc3ccccc3s2)C1 [Compound 36, N-[3-(2-benzothiazolyl)-4,5,6,7-tetrahydro-6-acetylthieno[2,3-c]pyridin-2-yl]-3-bromobenzamide]
- inhibition at 30 µM: 31%

Compound: COC(=O)c1ccc(C(=O)Nc2sc3c(c2-c2nc4ccccc4s2)CCN(C(C)C)C3)cc1 [Compound 20]
- pIC50: 6.62
- inhibition at 30 µM: 77%

Compound: CC(C)N1CCc2c(sc(NC(=O)CN3C(=O)CCC3=O)c2-c2nc3ccccc3s2)C1 [Compound 31, N-[3-(2-benzothiazolyl)-4,5,6,7-tetrahydro-6-(methylethyl)thieno[2,3-c]pyridin-2-yl]-(2,5-dioxo-1-pyrrolidine)acetamide]
- inhibition at 30 µM: 37%

Compound: CC(C)N1CCc2c(sc(NC(=O)C3CCCCC3)c2-c2nc3ccccc3s2)C1 [Compound 26, N-[3-(2-benzothiazolyl)-4,5,6,7-tetrahydro-6-(1-methylethyl)thieno[2,3-c]pyridin-2-yl]-cyclohexylcarboxamide]
- inhibition at 30 µM: 36%

Compound: CCN1CCc2c(sc(NC(=O)CCSc3ccccc3)c2-c2nc3ccccc3s2)C1 [Compound 29, N-[3-(2-benzothiazolyl)-4,5,6,7-tetrahydro-6-ethylthieno[2,3-c]pyridin-2-yl]-3-(phenylthio)propanamide]
- pIC50: 5.89
- inhibition at 30 µM: 72%

Compound: CCN1CCc2c(sc(NC(=O)c3cc4cc([N+](=O)[O-])ccc4s3)c2-c2nc3ccccc3s2)C1 [Compound 28, N-[3-(2-benzothiazolyl)-4,5,6,7-tetrahydro-6-ethylthieno[2,3-c]pyridin-2-yl]-benzo[b]thiophene-5-nitro-2-carboxamide]
- inhibition at 30 µM: 35%

Compound: CCOC(=O)N1CCc2c(sc(NC(=O)c3ccccc3)c2-c2nc3ccccc3s2)C1 [Compound 35, N-[3-(2-benzothiazolyl)-4,5,6,7-tetrahydro-6-ethoxycarbonylthieno[2,3-c]pyridin-2-yl]benzamide]
- inhibition at 30 µM: 37%

Compound: CCN1CCc2c(sc(NC(=O)c3ccccc3)c2-c2nc3ccccc3s2)C1 [Compound 9, N-[3-(2-benzothiazolyl)-4,5,6,7-tetrahydro-6-ethylthieno[2,3-c]pyridin-2-yl]-benzamide]
- pIC50: 6.30
- inhibition at 30 µM: 70%

Compound: CCN1CCc2c(sc(NC(=O)CCS(=O)(=O)c3ccccc3)c2-c2nc3ccccc3s2)C1 [Compound 38, N-[3-(2-benzothiazolyl)-4,5,6,7-tetrahydro-6-ethylthieno[2,3-c]pyridin-2-yl]-3-(phenylsulfonyl)propanamide]
- inhibition at 30 µM: 50%

Compound: CC(C)N1CCc2c(sc(NC(=O)CCc3ccccc3)c2-c2nc3ccccc3s2)C1 [Compound 18, N-[3-(2-benzothiazolyl)-4,5,6,7-tetrahydro-6-(1-methylethyl)thieno[2,3-c]pyridin-2-yl]-3-benzenepropaneamide]
- inhibition at 30 µM: 44%

Compound: Cc1ccc(CC(=S)Nc2sc3c(c2-c2nc4ccccc4s2)CCN(C)C3)cc1 [Compound 40, N-[3-(2-benzothiazolyl)-4,5,6,7-tetrahydro-6-methylthieno[2,3-c]pyridin-2-yl]-(4-methylphenyl)thioacetamide]
- inhibition at 30 µM: 41%

Compound: O=C(Nc1sc2c(c1-c1nc3ccccc3s1)CCN(Cc1ccccc1)C2)c1cccs1 [Compound 23, N-[3-(2-benzothiazolyl)-4,5,6,7-tetrahydro-6-phenylmethylthieno[2,3-c]pyridin-2-yl]-2-thiophenecarboxamide]
- inhibition at 30 µM: 57%

Compound: CCN1CCc2c(sc(NC(=O)c3cccc(N4C(=O)CCC4=O)c3)c2-c2nc3ccccc3s2)C1 [Compound 17, N-[3-(2-benzothiazolyl)-4,5,6,7-tetrahydro-6-ethylthieno[2,3-c]pyridin-2-yl]-3-(2,5-dioxo-1-pyrrolidinyl)benzamide]
- pIC50: 6.52
- inhibition at 30 µM: 77%

Compound: CN1CCc2c(sc(NC(=O)c3ccco3)c2-c2nc3ccccc3s2)C1 [Compound 25, N-[3-(2-benzothiazolyl)-4,5,6,7-tetrahydro-6-methylthieno[2,3-c]pyridin-2-yl]-2-furancarboxamide]
- inhibition at 30 µM: 55%

Compound: CC(C)(C)C(=O)Nc1sc2c(c1-c1nc3ccccc3s1)CCN(Cc1ccccc1)C2 [Compound 21, N-[3-(2-benzothiazolyl)-4,5,6,7-tetrahydro-6-phenylmethyllthieno[2,3-c]pyridin-2-yl]-2,2-dimethylpropaneamide]
- pIC50: 6.05
- inhibition at 30 µM: 79%
